The record followed here is ChEMBL document CHEMBL4428133, “Tyrosyl-DNA phosphodiesterase inhibitors: Progress and potential” (Bioorg Med Chem, 2016).

Test [1] deals with T1, Tyrosyl-DNA phosphodiesterase 2 (Homo sapiens, UniProt O95551).
T1 sequence (O95551 whole entry): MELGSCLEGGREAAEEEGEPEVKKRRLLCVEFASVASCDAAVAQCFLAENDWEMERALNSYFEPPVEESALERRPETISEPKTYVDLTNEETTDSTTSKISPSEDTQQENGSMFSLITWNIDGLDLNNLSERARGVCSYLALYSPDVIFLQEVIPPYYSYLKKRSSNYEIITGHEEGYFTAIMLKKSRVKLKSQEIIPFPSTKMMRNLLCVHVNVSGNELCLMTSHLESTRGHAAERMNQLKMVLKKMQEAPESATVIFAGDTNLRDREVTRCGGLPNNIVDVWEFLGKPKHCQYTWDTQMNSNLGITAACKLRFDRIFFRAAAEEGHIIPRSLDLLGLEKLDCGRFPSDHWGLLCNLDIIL
As to the kind of experiment: Inhibition of human N-terminal His-tagged TDP2 expressed in Escherichia coli JM109(DE3) using 5'-Y-TCCGTTGAAGCCTGCTTT-3' as substrate incubated for 60 mins by microplate reader analysis.

Test [2] in a line: Non-competitive inhibition of human 7721 cell membrane-derived phospholipase D using phosphatidylcholine as substrate preincubated for 10 mins followed by substrate addition in presence of PIP2 by Cornish-Bowden plot analysis.
Test [3] addresses T2, Tyrosyl-DNA phosphodiesterase 1 (Homo sapiens, UniProt Q9NUW8). As to the kind of experiment: Inhibition of recombinant TDP1 (unknown origin) using 5'-32P-labeled N14Y DNA substrate incubated for 15 mins by PAGE analysis.
Test [4] concerns the target T1, Tyrosyl-DNA phosphodiesterase 2. As to the kind of experiment: Inhibition of human recombinant TDP2 using 18-mer single stranded 5'-32P-labeled cordycepin DNA substrate incubated for 15 mins by PAGE analysis.
For test [5] the target is unchanged. As to the kind of experiment: Inhibition of TDP2 (unknown origin).
The target of test [6] is T2, Tyrosyl-DNA phosphodiesterase 1. Kind of test: Inhibition of N-terminal His-tagged TDP1 (unknown origin) expressed in Escherichia coli BL21(DE3) using 5'-6-FAM-AGGATCTAAAAGACTT-3BHQ-3' as substrate preincubated for 30 mins followed by substrate addition by fluorescence assay.
The test system of test [7] is MCF7. As to the kind of experiment: Growth inhibition of human MCF7 cells at 10 uM after 96 hrs in presence of camptothecin by MTT assay relative to camptothecin alone. As to conditions: MCF7, 96 h, read-out: GI. The format is functional.
Test [8] deals with T3, DNA topoisomerase 1 (Homo sapiens, UniProt P11387).
T3 sequence (P11387 whole entry): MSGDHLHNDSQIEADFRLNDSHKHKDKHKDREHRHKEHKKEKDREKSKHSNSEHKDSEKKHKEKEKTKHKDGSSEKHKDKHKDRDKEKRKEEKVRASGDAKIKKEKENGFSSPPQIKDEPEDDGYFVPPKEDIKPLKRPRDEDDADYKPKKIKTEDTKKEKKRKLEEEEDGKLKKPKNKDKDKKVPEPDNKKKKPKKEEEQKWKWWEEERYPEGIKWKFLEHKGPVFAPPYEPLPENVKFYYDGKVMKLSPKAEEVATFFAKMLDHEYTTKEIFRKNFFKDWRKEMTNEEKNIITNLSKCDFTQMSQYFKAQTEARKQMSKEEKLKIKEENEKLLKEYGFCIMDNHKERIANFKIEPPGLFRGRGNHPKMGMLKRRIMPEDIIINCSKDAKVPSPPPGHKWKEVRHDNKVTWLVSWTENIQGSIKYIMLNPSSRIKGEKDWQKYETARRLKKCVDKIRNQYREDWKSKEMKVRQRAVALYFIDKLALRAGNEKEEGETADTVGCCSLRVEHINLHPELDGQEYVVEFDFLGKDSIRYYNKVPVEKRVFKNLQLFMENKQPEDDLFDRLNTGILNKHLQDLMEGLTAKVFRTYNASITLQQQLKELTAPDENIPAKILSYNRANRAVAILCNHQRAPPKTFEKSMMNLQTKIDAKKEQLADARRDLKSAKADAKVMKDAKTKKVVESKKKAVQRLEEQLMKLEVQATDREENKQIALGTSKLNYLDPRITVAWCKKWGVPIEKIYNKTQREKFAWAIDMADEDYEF
As to the kind of experiment: Inhibition of topoisomerase-1 (unknown origin) using pBR 322 DNA as substrate.

The target of test [9] is T2, Tyrosyl-DNA phosphodiesterase 1. As to the kind of experiment: Inhibition of human N-terminal His-tagged TDP1 expressed in Escherichia coli BL21 using [32P]-D14Y duplex DNA as substrate incubated for 20 mins by PAGE analysis.
Test [10] is described as follows: Inhibition of human Jurkat cell membrane-derived protein tyrosine phosphatase using o-phospho-L-tyrosine as substrate incubated for 15 mins by malachite green staining based assay.
In test [11] the target is T2, Tyrosyl-DNA phosphodiesterase 1. As to the kind of experiment: Inhibition of TDP1 (unknown origin) using 14-mer duplex oligonucleotide [32P]-D14Y as substrate incubated for 20 mins by PAGE analysis.
The target is the same in test [12]. Kind of test: Inhibition of recombinant TDP1 (unknown origin) using 5'-32P-labeled N14Y DNA substrate incubated for 20 mins by PAGE analysis.

T2 sequence (Q9NUW8 whole entry): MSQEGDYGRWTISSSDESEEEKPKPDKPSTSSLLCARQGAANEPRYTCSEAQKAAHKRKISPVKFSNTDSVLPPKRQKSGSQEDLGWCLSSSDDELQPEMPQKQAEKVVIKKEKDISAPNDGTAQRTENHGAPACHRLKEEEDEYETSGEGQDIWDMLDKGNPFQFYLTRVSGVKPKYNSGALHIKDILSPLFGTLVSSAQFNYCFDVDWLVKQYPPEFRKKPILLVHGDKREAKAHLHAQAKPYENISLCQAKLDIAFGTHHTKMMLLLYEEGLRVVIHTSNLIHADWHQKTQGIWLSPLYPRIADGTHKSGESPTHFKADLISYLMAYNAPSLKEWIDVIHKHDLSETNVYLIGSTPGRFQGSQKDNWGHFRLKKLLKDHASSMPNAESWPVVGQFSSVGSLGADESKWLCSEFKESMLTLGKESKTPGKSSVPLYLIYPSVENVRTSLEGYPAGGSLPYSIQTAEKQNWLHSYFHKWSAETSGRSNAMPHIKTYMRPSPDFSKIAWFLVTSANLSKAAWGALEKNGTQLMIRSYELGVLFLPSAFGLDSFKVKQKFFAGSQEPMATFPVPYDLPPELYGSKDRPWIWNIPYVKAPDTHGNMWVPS

As a reminder, the EC50 is the concentration needed to bring the measured effect to its halfway point. The low end stands for greater potency, the high end for weaker potency. For the compound `Cc1cc2nc3c(=O)[nH]c(=O)nc-3n(C)c2cc1C=O`, the EC50 in test [1] worked out at 3.5 µM.

Broadly, the Ki is a measure of affinity in units of concentration, obtained from inhibition or displacement. For the compound `NCC1O[C@H](O[C@H]2[C@@H](O)[C@H](O[C@@H]3[C@@H](O)[C@H](N)C[C@H](N)[C@H]3O[C@H]3O[C@H](CN)[C@@H](O)[C@H](O)[C@H]3N)O[C@@H]2CO)[C@H](N)[C@@H](O)[C@@H]1O` (some centres undefined), the inhibition constant (Ki) in test [2] came to 8700 µM. The term IC50 denotes the midpoint of a concentration-inhibition curve. On to `COc1ccc2c(c1)Oc1nc(-c3ccc(C)cc3)nc(SCC(=O)Nc3ccc(C(=O)O)cc3)c1C2`, for which the concentration for half-maximal inhibition (IC50) in test [3] was determined as 12.1 µM.

With `CCn1cc(C(=O)O)c(=O)c2cc(F)c(N3CCN(CNc4ccc(S(=O)(=O)Nc5nc(C)cc(C)n5)cc4)CC3)cc21`, in [3], the IC50 was found to be 0.005 µM. Take `O=C(O)c1ccc(-c2ccc(/C=C3/NC(=O)N(Cc4ccccc4F)C3=O)o2)cc1`: the IC50 worked out at 7.7 µM in test [3] and 32 µM in test [4]. With `NC1=CC(N)=C2C=CC(=O)N=C2C1=O`, in test [5], half-maximal inhibition (IC50) required 2 µM.

With `O=C1NC(=S)NC(=O)C1=Cc1ccco1`, in test [6], half-maximal inhibition (IC50) was put at 0.71 µM. Besides, the inhibition of growth at 10 µM in test [7] came out at 25%. `O=C1c2c(c3c4cccc(O)c4n([C@@H]4O[C@H](CO)[C@@H](O)[C@H](O)[C@H]4O)c3c3[nH]c4c(O)cccc4c23)C(=O)N1NC(CO)CO` had a concentration giving a half-maximal response (EC50) in test [8] of 0.58 µM. Consider `COc1c(N2CCN(CNc3ccc(S(=O)(=O)Nc4nc(C)cc(C)n4)cc3)C(C)C2)c(F)cc2c(=O)c(C(=O)O)cn(C3CC3)c12` (centres undefined), for which, in test [3], the half-inhibitory concentration (IC50) amounted to 0.022 µM.

In [9], `CCC[C@@H]1C[C@@H](C(=O)N[C@@H]([C@H]2O[C@H](SC)[C@H](OP(=O)(O)O)[C@@H](O)[C@H]2O)[C@H](C)Cl)N(C)C1` [CLINDAMYCIN PHOSPHATE] registered a half-maximal inhibitory concentration (IC50) of 9100 µM. In test [10], `CN(N=O)c1cc(O)ccc1O` [DEPHOSTATIN] returned an IC50 of 7.7 µM. `NC[C@@H]1O[C@H](O[C@H]2[C@@H](O)[C@H](O[C@@H]3[C@@H](O)[C@H](N)C[C@H](N)[C@H]3O[C@H]3O[C@H](CO)[C@@H](O)C[C@H]3N)O[C@@H]2CO)[C@H](N)[C@@H](O)[C@@H]1O[C@H]1O[C@H](CO)[C@@H](O)[C@H](O)[C@@H]1O` [LIVIDOMYCIN]: in test [11], half-maximal inhibition (IC50) required 30000 µM.

With `CCN[C@@H]1C[C@H](N)[C@@H](O[C@H]2OC(CN)=CC[C@H]2N)[C@H](O)[C@H]1O[C@H]1OC[C@](C)(O)[C@H](NC)[C@H]1O` [NETILMICIN], the concentration for half-maximal inhibition (IC50) in test [11] stood at 8000 µM. In [9], `COc1ccc(C[C@H](N)C(=O)N[C@H]2[C@@H](O)[C@H](n3cnc4c(N(C)C)ncnc43)O[C@@H]2CO)cc1` [PUROMYCIN] yielded an IC50 of 18000 µM. In turn, `Cc1ccc(C(=O)Nc2ccc(S(=O)(=O)O)c3cc(S(=O)(=O)O)cc(S(=O)(=O)O)c23)cc1NC(=O)c1cccc(NC(=O)Nc2cccc(C(=O)Nc3cc(C(=O)Nc4ccc(S(=O)(=O)O)c5cc(S(=O)(=O)O)cc(S(=O)(=O)O)c45)ccc3C)c2)c1` [SURAMIN] came in with a 50% effective concentration (EC50) in [1] of 24 µM. Besides, the IC50 in test [12] was 5 µM.

In test [9], `C=C(NC(=O)C(=C)NC(=O)c1csc(C2=N[C@@H]3c4csc(n4)[C@H]4NC(=O)c5csc(n5)[C@H]([C@](C)(O)[C@@H](C)O)NC(=O)[C@H]5CSC(=N5)/C(=C/C)NC(=O)[C@H]([C@@H](C)O)NC(=O)c5csc(n5)[C@]3(CC2)NC(=O)[C@H](C)NC(=O)C(=C)NC(=O)[C@H](C)NC(=O)[C@H]([C@@H](C)CC)N[C@@H]2C=Cc3c([C@H](C)O)cc(nc3[C@H]2O)C(=O)O[C@@H]4C)n1)C(N)=O` [THIOSTREPTON] registered a concentration for half-maximal inhibition (IC50) of 1800 µM.
